From patent US6087355A, “Cephalosporin antibiotics” (Microcide Pharmaceuticals, Inc., priority 1996, dated 2000) come the findings set out here.

What all share (test): In vitro MIC, agar dilution
Holding throughout (type): cell-based
In general terms: In agar dilution the substance is mixed into plates at graded concentrations.

For assay [1], the system named is S. aureus Col8A(Meth^S)(lac^-). To be noted: S. aureus Col8A(Meth^S)(lac^-); for MIC: Staphylococcus aureus, read-out: minimum inhibitory concentration (MIC). Summed up: (§1)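 Two-fold dilutions (128 to ≤0.25 μg/mL, in duplicate) were poured into Mueller-Hinton agar. Log-phase broth cultures were spot-inoculated at about 10^4 cfu per spot and incubated 35-36°C for 16-20 hours; the MIC was the lowest concentration inhibiting growth. Col is a high-level PBP2a producer; Col 8A is its isogenic PBP2a-lacking partner.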

Assay [2] relates to S. aureus Col(Meth^R)(lac^-). To be noted: for MIC: Staphylococcus aureus, read-out: minimum inhibitory concentration (MIC). Summed up: as §1
A further assay concerns E. faecalis ATCC 29212. To be noted: for MIC: Enterococcus faecalis, ATCC29212, read-out: minimum inhibitory concentration (MIC). A digest of the protocol: (§2)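 Strains were spotted at roughly 10^4 cfu onto drug-containing Mueller-Hinton agar. MIC was read as the lowest inhibitory concentration after overnight incubation at 35-36 °C.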
A further assay concerns E. faecalis VanB(Van^R). To be noted: for MIC: Enterococcus faecalis, read-out: minimum inhibitory concentration (MIC). Summed up:
as §2

The next assay relates to E. faecium ATCC 35667. To be noted: for MIC: Enterococcus faecium, ATCC35667, read-out: minimum inhibitory concentration (MIC). A digest of the protocol: as §2
Another assay has as its system P. aeruginosa ATCC 27853. To be noted: for MIC: Pseudomonas aeruginosa, ATCC27853, read-out: minimum inhibitory concentration (MIC). Summed up:
as §2

The subject of assay [3] is S. aureus ATCC 33593(Meth^R). To be noted: for MIC: Staphylococcus aureus, ATCC33593, read-out: minimum inhibitory concentration (MIC). A digest of the protocol: as §2
The subject of another assay is E. coli ATCC 25992. To be noted: for MIC: Escherichia coli, ATCC25992, read-out: minimum inhibitory concentration (MIC). Summed up: as §2
In assay [4] the test system is S. aureus Spain #356(Meth^R). To be noted: for MIC: Staphylococcus aureus, read-out: minimum inhibitory concentration (MIC). Summed up:
as §2

Assay [5] concerns S. aureus ATCC 13709(Meth^S). To be noted: for MIC: Staphylococcus aureus, ATCC13709, S. aureus ATCC 13709(Meth^S), read-out: minimum inhibitory concentration (MIC). A digest of the protocol: as §2
In assay [6] the test system is S. haemolyticus 05(Meth^R). To be noted: for MIC: Staphylococcus haemolyticus, read-out: minimum inhibitory concentration (MIC). A digest of the protocol:
as §2

The subject of assay [7] is S. aureus PC1(Meth^S)(lac^+). To be noted: for MIC: Staphylococcus aureus, read-out: minimum inhibitory concentration (MIC). A digest of the protocol:
as §2

For assay [8], the system named is S. aureus 76(Meth^R)(lac^+). To be noted: for MIC: Staphylococcus aureus, read-out: minimum inhibitory concentration (MIC). A digest of the protocol:
as §2

In the next assay the test system is E. faecium A491(Amp^R). To be noted: for MIC: Enterococcus faecium, read-out: minimum inhibitory concentration (MIC). Summed up:
as §2

Another assay concerns E. faecium VanA(Van^R). To be noted: for MIC: Enterococcus faecium, read-out: minimum inhibitory concentration (MIC). A digest of the protocol: as §2
In another assay the test system is S. aureus ATCC 29213. To be noted: for MIC: Staphylococcus aureus, ATCC29213, read-out: minimum inhibitory concentration (MIC). A digest of the protocol:
as §2

Where a name gives a salt, the structure may show the parent alone.

Consider `NC/C=C\Cc1cnccc1SC1=C(C(=O)O)N2C(=O)[C@@H](NC(=O)/C(=N\O)c3nc(N)sc3Cl)[C@H]2SC1.O=C(O)C(F)(F)F` [Cmpd 50, (7R)-7-[(Z)-2-(2-amino-5-chlorothiazol-4-yl)-2-(hydroxyimino)acetamido]-3-(3-(4-amino-2-Z-buten-1-yl)pyrid-4-ylthio)-3-cephem-4-carboxylate, trifluoroacetic acid salt], for which the “minimum inhibitory concentration (MIC)” value in assay [1] was 0.25 µg/mL; in assay [2] it was 2 µg/mL; in the assay with E. faecalis ATCC 29212 it was 0.13 µg/mL; in the assay on E. faecalis VanB(Van^R), 0.5 µg/mL; in the assay with E. faecium ATCC 35667, 1 µg/mL; in the assay on P. aeruginosa ATCC 27853 it was more than 32 µg/mL. For the same molecule, the “minimum inhibitory concentration (MIC)” value in [3] was 2 µg/mL; in the assay on E. coli ATCC 25992, 4 µg/mL; in [4] it was 2 µg/mL; in assay [5] (S. aureus ATCC 13709(Meth^S)), 0.13 µg/mL; in assay [6], 4 µg/mL; in assay [7], 0.25 µg/mL. The “minimum inhibitory concentration (MIC)” value in assay [8] was found to be 2 µg/mL; in the assay with E. faecium A491(Amp^R) it was 16 µg/mL; in the assay with E. faecium VanA(Van^R), 2 µg/mL; in the assay with S. aureus ATCC 29213 it was 0.13 µg/mL.
In the case of `Nc1nc(/C(=N/O)C(=O)N[C@@H]2C(=O)N3C(C(=O)O)=C(Sc4ccncc4CSC4CCNC4)CS[C@H]23)c(Cl)s1` (stereo partly drawn) [Cmpd 42, (7R)-7-[(Z)-2-(2-amino-5-chlorothiazol-4-yl)-2-(hydroxyimino)acetamido]-3-(3-(pyrrolidin-3-ylthiomethyl)pyrid-4-ylthio)-3-cephem-4-carboxylate, trifluoroacetic acid salt], the MIC is 0.25 µg/mL in [1]; 0.5 µg/mL in assay [2]; not above 0.06 µg/mL with E. faecalis ATCC 29212; not above 0.06 µg/mL with E. faecalis VanB(Van^R); 0.25 µg/mL with E. faecium ATCC 35667; 32 µg/mL in the assay with P. aeruginosa ATCC 27853. The MIC turned out to be 1 µg/mL in assay [3]; 2 µg/mL with E. coli ATCC 25992; 1 µg/mL in assay [4]; 0.13 µg/mL in [5]; 2 µg/mL in assay [6]; 0.13 µg/mL in [7]. In addition, the MIC in assay [8] was found to be 1 µg/mL; with E. faecium A491(Amp^R), 4 µg/mL; with E. faecium VanA(Van^R), 0.5 µg/mL; in the assay with S. aureus ATCC 29213, 0.13 µg/mL.
As to `CNCC(=O)NCCSCc1cnccc1SC1=C(C(=O)O)N2C(=O)[C@@H](NC(=O)/C(=N\O)c3nc(N)sc3Cl)[C@H]2SC1` [Cmpd 43, (7R)-7-[(Z)-2-(2-amino-5-chlorothiazol-4-yl)-2-(hydroxyimino)acetamido]-3-[3-(N-methylglycyl)aminoethylthiomethylpyrid-4-ylthio]-3-cephem-4-carboxylate, trifluoroacetic acid salt], the MIC was 0.5 µg/mL in assay [1]; 2 µg/mL in assay [2]; 0.13 µg/mL with E. faecalis ATCC 29212; 0.25 µg/mL with E. faecalis VanB(Van^R); 1 µg/mL with E. faecium ATCC 35667; more than 32 µg/mL with P. aeruginosa ATCC 27853. For the same molecule, the MIC in assay [3] turned out to be 2 µg/mL; with E. coli ATCC 25992 it was 8 µg/mL; in assay [4], 2 µg/mL; in assay [5] it was 0.5 µg/mL; in assay [6] it was 4 µg/mL; in assay [7], 1 µg/mL. Moreover, the MIC is 2 µg/mL in assay [8], 8 µg/mL in the assay on E. faecium A491(Amp^R), 1 µg/mL with E. faecium VanA(Van^R) and 0.5 µg/mL with S. aureus ATCC 29213.
Take `NCCSCc1nnsc1SC1=C(C(=O)O)N2C(=O)[C@@H](NC(=O)Cc3ccccc3)[C@H]2SC1.O=C(O)C(F)(F)F` [Cmpd 37, (7R)-7-[(phenylacetyl)amino]-3-(4-(2-aminoethylthiomethyl)-1,2,3-thiadiazol-5-ylthio)-3-cephem-4-carboxylate, trifluoroacetic acid salt]: the MIC in assay [1] was not above 0.06 µg/mL; in assay [2], 0.5 µg/mL; in the assay on E. faecalis ATCC 29212, 0.25 µg/mL; in the assay with E. faecalis VanB(Van^R), 0.5 µg/mL; with E. faecium ATCC 35667, 0.5 µg/mL; with P. aeruginosa ATCC 27853 it was more than 32 µg/mL. The MIC in [3] was 16 µg/mL; in the assay on E. coli ATCC 25992, more than 32 µg/mL; in assay [4] it was 8 µg/mL; in assay [5], not above 0.06 µg/mL; in assay [6] it was 8 µg/mL; in [7], 1 µg/mL. The MIC in assay [8] was 4 µg/mL; in the assay on E. faecium A491(Amp^R), more than 32 µg/mL; in the assay with E. faecium VanA(Van^R) it was 2 µg/mL; with S. aureus ATCC 29213, 0.5 µg/mL.
Consider `NCC[S+]([O-])Cc1cnccc1SC1=C(C(=O)O)N2C(=O)[C@@H](NC(=O)/C(=N\O)c3nc(N)sc3Cl)[C@H]2SC1` (stereo partly drawn) [Cmpd 53, (7R)-7-[(Z)-2-(2-amino-5-chlorothiazol-4-yl)-2-(hydroxyimino)acetamido]-3-(3-aminoethylsulfinylmethylpyrid-4-ylthio)-3-cephem-4-carboxylate, trifluoroacetic acid salt], for which the MIC was 0.5 µg/mL in [1]; 4 µg/mL in assay [2]; 0.13 µg/mL in the assay on E. faecalis ATCC 29212; 0.25 µg/mL in the assay on E. faecalis VanB(Van^R); 1 µg/mL in the assay with E. faecium ATCC 35667; more than 32 µg/mL in the assay with P. aeruginosa ATCC 27853. For the same molecule, the MIC in [3] came out at 2 µg/mL; in the assay on E. coli ATCC 25992 it was 4 µg/mL; in assay [4], 4 µg/mL; in assay [5], 0.25 µg/mL; in assay [6], 4 µg/mL; in assay [7], 1 µg/mL. Also, the MIC was found to be 4 µg/mL in assay [8], 16 µg/mL in the assay with E. faecium A491(Amp^R), 2 µg/mL in the assay on E. faecium VanA(Van^R) and 0.5 µg/mL in the assay with S. aureus ATCC 29213.
Take `CN(C)C(=O)[C@@H]1CC(SCc2cnccc2SC2=C(C(=O)O)N3C(=O)[C@@H](NC(=O)/C(=N\O)c4nc(N)sc4Cl)[C@H]3SC2)CN1` (stereo partly drawn) [Cmpd 55, (7R)-7-[(Z)-2-(2-amino-5-chlorothiazol-4-yl)-2-(hydroxyimino)acetamido]-3-(3-(5S-5-N,N-dimethylcarboxamidopyrrolidin-3-ylthiomethyl)pyrid-4-ylthio)-3-cephem-4-carboxylate, trifluoroacetic acid salt]: the MIC was 0.5 µg/mL in assay [1]; 4 µg/mL in assay [2]; 0.25 µg/mL with E. faecalis ATCC 29212; 0.5 µg/mL in the assay with E. faecalis VanB(Van^R); 0.5 µg/mL in the assay with E. faecium ATCC 35667; more than 32 µg/mL with P. aeruginosa ATCC 27853. In addition, the MIC in [3] turned out to be 2 µg/mL; with E. coli ATCC 25992, 8 µg/mL; in assay [4] it was 4 µg/mL; in [5], 0.25 µg/mL; in [6], 4 µg/mL; in assay [7] it was 1 µg/mL. In addition, the MIC is 4 µg/mL in [8], 16 µg/mL in the assay with E. faecium A491(Amp^R), 2 µg/mL with E. faecium VanA(Van^R) and 0.5 µg/mL with S. aureus ATCC 29213.
As for `Nc1nc(/C(=N/O)C(=O)N[C@@H]2C(=O)N3C(C(=O)O)=C(Sc4ccncc4CSCCNC=O)CS[C@H]23)c(Cl)s1` [Cmpd 63, (7R)-7-[(Z)-2-(2-amino-5-chlorothiazol-4-yl)-2-(hydroxyimino)acetamido]-3-(3-(N-formylaminoethylthiomethyl)pyrid-4-ylthio)-3-cephem-4-carboxylate, trifluoroacetic acid salt], the MIC was 0.13 µg/mL in assay [1]; 2 µg/mL in assay [2]; 0.13 µg/mL with E. faecalis ATCC 29212; 0.25 µg/mL in the assay with E. faecalis VanB(Van^R); 0.5 µg/mL in the assay with E. faecium ATCC 35667; more than 32 µg/mL in the assay on P. aeruginosa ATCC 27853. Besides, the MIC stood at 2 µg/mL in [3]; 16 µg/mL with E. coli ATCC 25992; 4 µg/mL in assay [4]; 0.25 µg/mL in assay [5]; 2 µg/mL in assay [6]; 0.25 µg/mL in [7]. For the same molecule, the MIC in assay [8] worked out at 2 µg/mL; with E. faecium A491(Amp^R) it was 16 µg/mL; in the assay with E. faecium VanA(Van^R), 1 µg/mL; in the assay with S. aureus ATCC 29213, 0.25 µg/mL.
